Key:
[1] = target: Mitogen-activated protein kinase kinase kinase 6 (Homo sapiens) (UniProt O95382); details: Compound concentration 1000.0 nM
[2] = target: Bone morphogenetic protein receptor type-1B (Homo sapiens) (UniProt O00238); details: Compound concentration 1000.0 nM
[3] = target: Serine/threonine-protein kinase BRSK1 (Homo sapiens) (UniProt Q8TDC3); details: Compound concentration 1000.0 nM
[4] = target: Mitotic checkpoint serine/threonine-protein kinase BUB1 (Homo sapiens) (UniProt O43683); details: Compound concentration 1000.0 nM
[5] = target: Calcium/calmodulin-dependent protein kinase type IV (Homo sapiens) (UniProt Q16566); details: Compound concentration 1000.0 nM
[6] = target: Cyclin-dependent kinase 3 (Homo sapiens) (UniProt Q00526); details: Compound concentration 1000.0 nM
[7] = target: Cyclin-dependent kinase 8 (Homo sapiens) (UniProt P49336); details: Compound concentration 1000.0 nM
[8] = target: Cyclin-dependent kinase-like 5 (Homo sapiens) (UniProt O76039); details: Compound concentration 1000.0 nM
[9] = target: Casein kinase I isoform alpha (Homo sapiens) (UniProt P48729); details: Compound concentration 1000.0 nM
[10] = target: Serine/threonine-protein kinase DCLK1 (Homo sapiens) (UniProt O15075); details: Compound concentration 1000.0 nM
[11] = target: Serine/threonine-protein kinase DCLK3 (Homo sapiens) (UniProt Q9C098); details: Compound concentration 1000.0 nM
[12] = tested on: Epidermal growth factor receptor (Homo sapiens), P00533 [G719C]; details: Compound concentration 1000.0 nM
[13] = tested on: Epidermal growth factor receptor (Homo sapiens), P00533 [UNDEFINED MUTATION]; details: Compound concentration 1000.0 nM
[14] = target: Ephrin type-A receptor 8 (Homo sapiens) (UniProt P29322); details: Compound concentration 1000.0 nM
[15] = tested on: Receptor-type tyrosine-protein kinase FLT3 (Homo sapiens), P36888 [D835V]; details: Compound concentration 1000.0 nM
[16] = tested on: Receptor-type tyrosine-protein kinase FLT3 (Homo sapiens), P36888 [R834Q]; details: Compound concentration 1000.0 nM
[17] = target: Rhodopsin kinase GRK1 (Homo sapiens) (UniProt Q15835); details: Compound concentration 1000.0 nM
[18] = target: G protein-coupled receptor kinase 3 (Homo sapiens) (UniProt P35626); details: Compound concentration 1000.0 nM
[19] = target: Homeodomain-interacting protein kinase 3 (Homo sapiens) (UniProt Q9H422); details: Compound concentration 1000.0 nM
[20] = target: Serine/threonine-protein kinase ICK (Homo sapiens) (UniProt Q9UPZ9); details: Compound concentration 1000.0 nM
[21] = target: Insulin receptor (Homo sapiens) (UniProt P06213); details: Compound concentration 1000.0 nM
[22] = tested on: Mast/stem cell growth factor receptor Kit (Homo sapiens), P10721 [D816H]; details: Compound concentration 1000.0 nM
[23] = tested on: Mast/stem cell growth factor receptor Kit (Homo sapiens), P10721 [V559D]; details: Compound concentration 1000.0 nM
[24] = target: Serine/threonine-protein kinase MAK (Homo sapiens) (UniProt P20794); details: Compound concentration 1000.0 nM
[25] = target: Mitogen-activated protein kinase kinase kinase 2 (Homo sapiens) (UniProt Q9Y2U5); details: Compound concentration 1000.0 nM
[26] = tested on: Hepatocyte growth factor receptor (Homo sapiens), P08581 [Y1235D]; details: Compound concentration 1000.0 nM
[27] = target: Serine/threonine-protein kinase mTOR (Homo sapiens) (UniProt P42345); details: Compound concentration 1000.0 nM
[28] = target: Myosin light chain kinase, smooth muscle (Homo sapiens) (UniProt Q15746); details: Compound concentration 1000.0 nM
[29] = target: Mitogen-activated protein kinase 11 (Homo sapiens) (UniProt Q15759); details: Compound concentration 1000.0 nM
[30] = target: Platelet-derived growth factor receptor beta (Homo sapiens) (UniProt P09619); details: Compound concentration 1000.0 nM
[31] = target: Phosphatidylinositol 4,5-bisphosphate 3-kinase catalytic subunit alpha isoform (Homo sapiens) (UniProt P42336); details: Compound concentration 1000.0 nM
[32] = tested on: Phosphatidylinositol 4,5-bisphosphate 3-kinase catalytic subunit alpha isoform (Homo sapiens), P42336 [E545A]; details: Compound concentration 1000.0 nM
[33] = target: Serine/threonine-protein kinase PLK1 (Homo sapiens) (UniProt P53350); details: Compound concentration 1000.0 nM
[34] = target: Interferon-induced, double-stranded RNA-activated protein kinase (Homo sapiens) (UniProt P19525); details: Compound concentration 1000.0 nM
[35] = target: Ribosomal protein S6 kinase alpha-5 (Homo sapiens) (UniProt O75582); details: Compound concentration 1000.0 nM
[36] = target: SNF-related serine/threonine-protein kinase (Homo sapiens) (UniProt Q9NRH2); details: Compound concentration 1000.0 nM
[37] = target: Tyrosine-protein kinase Tec (Homo sapiens) (UniProt P42680); details: Compound concentration 1000.0 nM
[38] = target: Tyrosine-protein kinase TXK (Homo sapiens) (UniProt P42681); details: Compound concentration 1000.0 nM
[39] = target: Phosphatidylinositol 3-kinase catalytic subunit type 3 (Homo sapiens) (UniProt Q8NEB9); details: Compound concentration 1000.0 nM
[40] = target: Serine/threonine-protein kinase 32C (Homo sapiens) (UniProt Q86UX6); details: Compound concentration 1000.0 nM
[41] = target: Tyrosine-protein kinase Yes (Homo sapiens) (UniProt P07947); details: Compound concentration 1000.0 nM
[42] = target: 5-hydroxytryptamine receptor 1D (Homo sapiens) (UniProt P28221); details: Compound concentration 10.0 uM
[43] = target: Mu-type opioid receptor (Homo sapiens) (UniProt P35372); details: Compound concentration 10.0 uM
[44] = target: Kappa-type opioid receptor (Homo sapiens) (UniProt P41145); details: Compound concentration 10.0 uM
[45] = target: Beta-2 adrenergic receptor (Homo sapiens) (UniProt P07550); details: Compound concentration 10.0 uM
Sequence of Beta-2 adrenergic receptor (Homo sapiens) (P07550 whole entry, looked up): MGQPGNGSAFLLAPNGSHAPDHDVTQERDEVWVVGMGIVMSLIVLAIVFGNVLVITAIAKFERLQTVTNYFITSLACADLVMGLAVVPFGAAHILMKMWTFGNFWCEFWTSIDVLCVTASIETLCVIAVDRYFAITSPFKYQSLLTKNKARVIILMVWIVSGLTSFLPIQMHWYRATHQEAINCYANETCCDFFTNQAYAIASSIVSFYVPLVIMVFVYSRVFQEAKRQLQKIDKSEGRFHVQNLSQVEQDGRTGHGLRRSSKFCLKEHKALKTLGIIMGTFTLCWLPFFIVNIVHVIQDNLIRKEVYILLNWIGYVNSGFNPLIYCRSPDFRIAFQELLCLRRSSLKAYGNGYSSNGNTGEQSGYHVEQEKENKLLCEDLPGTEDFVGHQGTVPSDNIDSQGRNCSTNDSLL

Sequence of Serine/threonine-protein kinase MAK (Homo sapiens) (P20794 whole entry): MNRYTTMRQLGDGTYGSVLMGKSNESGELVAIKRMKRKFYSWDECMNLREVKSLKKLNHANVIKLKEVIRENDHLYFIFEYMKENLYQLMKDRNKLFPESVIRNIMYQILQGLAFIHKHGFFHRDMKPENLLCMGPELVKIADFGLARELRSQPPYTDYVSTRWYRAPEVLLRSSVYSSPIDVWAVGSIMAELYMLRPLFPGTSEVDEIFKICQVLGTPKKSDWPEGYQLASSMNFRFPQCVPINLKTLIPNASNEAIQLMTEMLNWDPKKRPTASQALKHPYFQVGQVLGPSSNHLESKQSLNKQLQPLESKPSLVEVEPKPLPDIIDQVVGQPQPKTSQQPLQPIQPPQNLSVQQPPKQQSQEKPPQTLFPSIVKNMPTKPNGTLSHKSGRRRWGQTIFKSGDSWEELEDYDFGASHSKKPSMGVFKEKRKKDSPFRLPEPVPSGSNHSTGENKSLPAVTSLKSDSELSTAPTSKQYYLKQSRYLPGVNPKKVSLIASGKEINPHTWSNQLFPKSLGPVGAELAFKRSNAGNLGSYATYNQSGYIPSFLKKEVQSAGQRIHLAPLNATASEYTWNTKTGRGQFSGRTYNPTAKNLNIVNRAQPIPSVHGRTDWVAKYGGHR
Sequence of Calcium/calmodulin-dependent protein kinase type IV (Homo sapiens) (Q16566 whole entry): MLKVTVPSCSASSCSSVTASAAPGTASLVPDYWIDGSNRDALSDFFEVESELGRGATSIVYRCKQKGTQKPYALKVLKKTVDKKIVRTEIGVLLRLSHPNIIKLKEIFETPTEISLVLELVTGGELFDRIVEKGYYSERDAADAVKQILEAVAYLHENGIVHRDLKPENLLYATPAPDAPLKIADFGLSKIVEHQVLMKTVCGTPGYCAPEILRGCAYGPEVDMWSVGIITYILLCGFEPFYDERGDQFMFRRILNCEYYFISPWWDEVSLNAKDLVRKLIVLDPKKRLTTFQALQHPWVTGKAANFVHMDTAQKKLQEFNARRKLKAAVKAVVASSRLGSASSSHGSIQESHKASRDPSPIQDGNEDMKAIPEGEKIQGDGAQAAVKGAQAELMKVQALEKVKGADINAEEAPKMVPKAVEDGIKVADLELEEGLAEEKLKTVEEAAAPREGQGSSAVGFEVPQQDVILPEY
Sequence of Mast/stem cell growth factor receptor Kit (Homo sapiens), P10721 [V559D] (P10721 whole entry V559D): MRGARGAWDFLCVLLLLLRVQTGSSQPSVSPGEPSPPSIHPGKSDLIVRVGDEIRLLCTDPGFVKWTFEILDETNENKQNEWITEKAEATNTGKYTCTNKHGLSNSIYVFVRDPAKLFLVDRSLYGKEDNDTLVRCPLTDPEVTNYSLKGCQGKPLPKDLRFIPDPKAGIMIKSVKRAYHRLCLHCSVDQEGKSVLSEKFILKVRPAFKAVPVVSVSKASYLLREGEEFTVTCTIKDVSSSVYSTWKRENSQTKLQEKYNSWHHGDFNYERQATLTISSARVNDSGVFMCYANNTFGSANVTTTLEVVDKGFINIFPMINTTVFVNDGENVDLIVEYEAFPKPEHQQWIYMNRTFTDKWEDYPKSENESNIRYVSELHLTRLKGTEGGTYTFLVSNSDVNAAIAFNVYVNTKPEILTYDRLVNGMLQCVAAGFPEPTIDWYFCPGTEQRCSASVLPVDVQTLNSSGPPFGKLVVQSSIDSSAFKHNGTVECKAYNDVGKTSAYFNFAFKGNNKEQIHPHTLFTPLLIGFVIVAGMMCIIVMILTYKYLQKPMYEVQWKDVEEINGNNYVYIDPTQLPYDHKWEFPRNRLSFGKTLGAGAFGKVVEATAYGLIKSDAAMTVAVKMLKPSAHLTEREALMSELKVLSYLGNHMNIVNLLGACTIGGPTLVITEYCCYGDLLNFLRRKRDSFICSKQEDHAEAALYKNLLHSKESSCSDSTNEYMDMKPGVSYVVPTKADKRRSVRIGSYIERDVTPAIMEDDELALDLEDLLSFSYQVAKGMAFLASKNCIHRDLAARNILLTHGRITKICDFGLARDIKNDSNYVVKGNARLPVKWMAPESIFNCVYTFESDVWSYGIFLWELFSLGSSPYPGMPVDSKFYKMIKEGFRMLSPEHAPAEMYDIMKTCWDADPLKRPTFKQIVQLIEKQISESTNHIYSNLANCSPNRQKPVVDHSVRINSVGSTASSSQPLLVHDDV
Sequence of Tyrosine-protein kinase TXK (Homo sapiens) (P42681 whole entry): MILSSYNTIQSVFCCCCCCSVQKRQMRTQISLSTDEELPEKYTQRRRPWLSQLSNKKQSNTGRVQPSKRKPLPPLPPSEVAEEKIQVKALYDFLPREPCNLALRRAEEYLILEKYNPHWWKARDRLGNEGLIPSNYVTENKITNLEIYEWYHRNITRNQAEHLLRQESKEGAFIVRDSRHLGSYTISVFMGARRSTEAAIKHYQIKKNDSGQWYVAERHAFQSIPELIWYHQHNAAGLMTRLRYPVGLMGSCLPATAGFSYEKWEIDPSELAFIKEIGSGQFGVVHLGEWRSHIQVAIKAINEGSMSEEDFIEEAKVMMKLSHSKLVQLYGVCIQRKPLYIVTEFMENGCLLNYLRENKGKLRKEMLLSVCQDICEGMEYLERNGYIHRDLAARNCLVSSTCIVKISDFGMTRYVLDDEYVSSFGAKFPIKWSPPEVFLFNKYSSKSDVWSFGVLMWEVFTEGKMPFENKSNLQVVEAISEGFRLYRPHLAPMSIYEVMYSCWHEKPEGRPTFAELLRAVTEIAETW
Sequence of Casein kinase I isoform alpha (Homo sapiens) (P48729 2-337 limits assumed): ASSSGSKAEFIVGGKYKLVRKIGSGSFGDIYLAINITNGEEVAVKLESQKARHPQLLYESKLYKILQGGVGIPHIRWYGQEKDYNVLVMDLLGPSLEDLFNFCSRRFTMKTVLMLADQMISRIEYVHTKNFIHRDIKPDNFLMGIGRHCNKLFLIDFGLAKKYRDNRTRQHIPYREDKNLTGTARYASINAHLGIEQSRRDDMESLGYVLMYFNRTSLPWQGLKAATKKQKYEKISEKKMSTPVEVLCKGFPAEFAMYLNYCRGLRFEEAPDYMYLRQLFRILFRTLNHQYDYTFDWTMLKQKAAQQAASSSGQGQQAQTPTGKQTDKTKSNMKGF
Sequence of G protein-coupled receptor kinase 3 (Homo sapiens) (P35626 whole entry): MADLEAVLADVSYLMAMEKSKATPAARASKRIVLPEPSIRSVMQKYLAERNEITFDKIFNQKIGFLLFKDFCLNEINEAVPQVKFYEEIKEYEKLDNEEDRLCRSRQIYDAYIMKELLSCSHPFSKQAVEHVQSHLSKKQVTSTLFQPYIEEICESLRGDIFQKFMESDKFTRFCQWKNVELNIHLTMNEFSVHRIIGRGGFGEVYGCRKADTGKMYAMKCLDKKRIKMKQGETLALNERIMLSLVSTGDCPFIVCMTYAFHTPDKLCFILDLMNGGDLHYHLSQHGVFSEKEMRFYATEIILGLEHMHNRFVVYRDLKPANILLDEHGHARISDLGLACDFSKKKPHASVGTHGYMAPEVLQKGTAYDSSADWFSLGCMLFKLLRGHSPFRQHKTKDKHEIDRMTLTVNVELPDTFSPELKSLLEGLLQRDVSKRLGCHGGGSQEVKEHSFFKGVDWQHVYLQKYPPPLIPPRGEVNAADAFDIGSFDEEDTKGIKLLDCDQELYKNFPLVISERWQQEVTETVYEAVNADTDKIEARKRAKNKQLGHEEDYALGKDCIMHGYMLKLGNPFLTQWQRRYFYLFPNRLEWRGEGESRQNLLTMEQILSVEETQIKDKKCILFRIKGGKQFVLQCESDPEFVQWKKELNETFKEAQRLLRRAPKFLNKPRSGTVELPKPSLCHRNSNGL
Sequence of Serine/threonine-protein kinase DCLK1 (Homo sapiens) (O15075 whole entry): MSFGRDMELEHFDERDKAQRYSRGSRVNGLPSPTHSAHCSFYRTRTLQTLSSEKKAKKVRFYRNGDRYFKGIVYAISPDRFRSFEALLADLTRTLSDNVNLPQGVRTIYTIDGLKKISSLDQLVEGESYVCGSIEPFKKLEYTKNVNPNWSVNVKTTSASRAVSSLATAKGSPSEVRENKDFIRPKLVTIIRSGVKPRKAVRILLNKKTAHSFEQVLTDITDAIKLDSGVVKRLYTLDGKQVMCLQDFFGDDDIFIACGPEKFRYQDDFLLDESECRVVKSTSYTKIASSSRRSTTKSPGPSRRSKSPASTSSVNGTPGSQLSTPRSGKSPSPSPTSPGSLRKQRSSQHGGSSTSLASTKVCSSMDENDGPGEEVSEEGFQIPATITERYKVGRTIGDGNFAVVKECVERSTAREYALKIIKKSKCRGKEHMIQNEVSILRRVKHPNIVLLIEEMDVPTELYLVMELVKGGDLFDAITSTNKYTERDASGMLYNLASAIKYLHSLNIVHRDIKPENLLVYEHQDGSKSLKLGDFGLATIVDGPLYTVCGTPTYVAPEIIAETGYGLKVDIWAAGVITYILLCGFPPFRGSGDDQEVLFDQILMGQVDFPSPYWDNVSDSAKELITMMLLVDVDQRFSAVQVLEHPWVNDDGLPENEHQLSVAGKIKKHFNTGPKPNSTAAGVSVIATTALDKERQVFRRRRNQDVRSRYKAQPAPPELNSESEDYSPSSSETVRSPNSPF
Sequence of Mast/stem cell growth factor receptor Kit (Homo sapiens), P10721 [D816H] (P10721 whole entry D816H): as the sequence (P10721 whole entry V559D) above, with D559V, D816H counted along it

CS(=O)(=O)c1cc(C2(NC(=O)c3cncc4c3cnn4-c3ccc(F)cc3)CC2)ccn1 [BI 639667]
residual activity [1]: 100% | residual activity [2]: 82% | residual activity [3]: 74% | residual activity [4]: 85% | residual activity [5]: 100% | residual activity [6]: 81% | residual activity [7]: 100% | residual activity [8]: 89% | residual activity [9]: 96% | residual activity [10]: 75% | residual activity [11]: 100% | residual activity [12]: 100% | residual activity [13]: 66% | residual activity [14]: 99% | residual activity [15]: 100% | residual activity [16]: 75% | residual activity [17]: 87% | residual activity [18]: 100% | residual activity [19]: 85% | residual activity [20]: 100% | residual activity [21]: 100% | residual activity [22]: 49% | residual activity [23]: 100% | residual activity [24]: 100% | residual activity [25]: 84% | residual activity [26]: 91% | residual activity [27]: 100% | residual activity [28]: 94% | residual activity [29]: 100% | residual activity [30]: 93% | residual activity [31]: 100% | residual activity [32]: 100% | residual activity [33]: 90% | residual activity [34]: 60% | residual activity [35]: 100% | residual activity [36]: 88% | residual activity [37]: 99% | residual activity [38]: 89% | residual activity [39]: 86% | residual activity [40]: 81% | residual activity [41]: 100% | inhibition [42]: 14.5% | inhibition [43]: -7.9% | inhibition [44]: 1.68% | inhibition [45]: -7.76%

CS(=O)(=O)NCC[C@H](NC(=O)c1cncc2c1cnn2-c1ccc(F)cc1)c1ccnc(S(C)(=O)=O)c1 [BI 9307]
residual activity [1]: 100% | residual activity [2]: 100% | residual activity [3]: 99% | residual activity [4]: 100% | residual activity [5]: 100% | residual activity [6]: 100% | residual activity [7]: 100% | residual activity [8]: 100% | residual activity [9]: 100% | residual activity [10]: 94% | residual activity [11]: 93% | residual activity [12]: 99% | residual activity [13]: 71% | residual activity [14]: 100% | residual activity [15]: 100% | residual activity [16]: 79% | residual activity [17]: 100% | residual activity [18]: 100% | residual activity [19]: 100% | residual activity [20]: 100% | residual activity [21]: 92% | residual activity [22]: 100% | residual activity [23]: 100% | residual activity [24]: 100% | residual activity [25]: 100% | residual activity [26]: 93% | residual activity [27]: 88% | residual activity [28]: 100% | residual activity [29]: 100% | residual activity [30]: 100% | residual activity [31]: 83% | residual activity [32]: 100% | residual activity [33]: 100% | residual activity [34]: 53% | residual activity [35]: 88% | residual activity [36]: 100% | residual activity [37]: 96% | residual activity [38]: 84% | residual activity [39]: 100% | residual activity [40]: 100% | residual activity [41]: 100% | inhibition [42]: 38.9% | inhibition [43]: -0.92% | inhibition [44]: 0.74% | inhibition [45]: -5.93%
